Assay results taken from patent publication US20190233884A1 (University of Southern California, priority 2016, published 2019).

Tested on: patients with refractory metastatic colorectal cancer (mCRC)
Test: PFS, OS and disease control in the testing (validation) cohort of refractory mCRC patients receiving TAS-102 (n=129, Italy), by baseline characteristics, SNP genotype and toxicity
Assay type: in vivo, human
Protocol: All patients underwent the treatment in salvage-line setting. […]
(§1) Genomic DNA was extracted from peripheral whole blood in patients of all cohorts using the QIAmp Kit (Qiagen, Valencia, Calif., USA) according to the manufacturer's protocol (www.qiagen.com). The candidate SNPs were genotyped using PCR-based direct DNA sequence analysis by ABI 3100A Capillary Genetic Analyzer and Sequencing Scanner v1.0 (Applied Biosystems). Amplification of extracted DNA was carried out using both forward and reverse primers for each gene polymorphism as shown in Table 1. […] The investigators analyzing SNPs were blinded to the clinical data of the study patients.
The primary endpoint in this study was progression-free survival (PFS), and the secondary endpoints were overall survival (OS) and disease control rate (DCR). PFS was calculated from the date of starting treatment to the first observation of disease progression or death from any cause. If a patient had no disease progression or death, PFS was censored at the date of last follow up. OS was calculated from the date of starting treatment until the date of death from any cause or the date of the last follow-up, at which point OS was censored. The disease control rate (DCR) was defined as the proportion of patients who achieved a stable disease (SD) or […] according to RECISTv1.1. Chi-square test was used to examine the difference in baseline patient characteristics among the three cohorts. Allelic distribution of all SNPs by ethnicity for deviation from Hardy-Weinberg equilibrium and the allelic frequencies of SNPs were tested using the Chi-square tests with one degree of freedom. The associations between candidate SNPs and disease control, and toxicities were examined using contingency tables and Fisher's exact test. The associations of SNPs with PFS and OS were analysed using Kaplan-Meier curves and the log-rank test. Because the true mode of inheritance of candidate SNPs was not established yet, a codominant or dominant genetic model if appropriate was considered.
All patients underwent the treatment in salvage-line setting. […] In all patients, adverse events were graded according to the Common Terminology Criteria for Adverse Events, version 4.0. […]
as §1, with “tested” for “genotyped”, “Biosystems).” for “Biosystems). Amplification of extracted DNA was carried out using both forward and reverse primers for each gene polymorphism as shown in Table 1.”, “data.” for “data of the study patients.”
The primary endpoint in this study was progression-free survival (PFS), and the secondary endpoints were overall survival (OS) and disease control rate (DCR).

[1] = validation cohort, Performance status ECOG 1+ vs ECOG 0 (Ref.), univariate
[2] = validation cohort, Peritoneal No
[3] = validation cohort, Peritoneal No vs Yes (Ref.), univariate
[4] = validation cohort, Peritoneal Yes
[5] = validation cohort, Pre-chemo numbers <4
[6] = validation cohort, Pre-chemo numbers ≥4
[7] = validation cohort, Pre-chemo numbers ≥4 vs <4 (Ref.), univariate
[8] = validation cohort, Previous anti-EGFR No
[9] = validation cohort, Previous anti-EGFR No vs Yes (Ref.), univariate
[10] = validation cohort, Previous anti-EGFR Yes
[11] = validation cohort, Previous anti-VEGF No
[12] = validation cohort, Previous anti-VEGF No vs Yes (Ref.), univariate
[13] = validation cohort, Previous anti-VEGF Yes
[14] = validation cohort, Primary tumor resection No
[15] = validation cohort, Primary tumor resection No vs Yes (Ref.), univariate
[16] = validation cohort, Primary tumor resection Yes
[17] = validation cohort, Prior REGORA No
[18] = validation cohort, Prior REGORA No vs Yes (Ref.), univariate
[19] = validation cohort, Prior REGORA Yes
[20] = validation cohort, RAS status Mutant
[21] = validation cohort, RAS status Mutant vs Wild type (Ref.), univariate
[22] = validation cohort, RAS status Wild type
[23] = validation cohort, Sex Female vs Male (Ref.), univariate
[24] = validation cohort, Time to metastasis Metachronous
[25] = validation cohort, Time to metastasis Metachronous vs Synchronous (Ref.), univariate
[26] = validation cohort, Time to metastasis Synchronous
[27] = validation cohort, Tumor site Left
[28] = validation cohort, Tumor site Left vs Right (Ref.), univariate
[29] = validation cohort, Tumor site Right
[30] = validation cohort, XRCC3 rs861539 A/A
[31] = validation cohort, XRCC3 rs861539 A/A vs Any G (Ref.), multivariable
[32] = validation cohort, XRCC3 rs861539 A/A vs Any G (Ref.), univariate
[33] = validation cohort, XRCC3 rs861539 A/A vs G/G (Ref.), multivariable
[34] = validation cohort, XRCC3 rs861539 A/A vs G/G (Ref.), univariate
[35] = validation cohort, XRCC3 rs861539 Any A
[36] = validation cohort, XRCC3 rs861539 Any A vs G/G (Ref.), multivariable
[37] = validation cohort, XRCC3 rs861539 Any A vs G/G (Ref.), univariate
[38] = validation cohort, XRCC3 rs861539 Any G
[39] = validation cohort, XRCC3 rs861539 G/A
[40] = validation cohort, XRCC3 rs861539 G/A vs G/G (Ref.), multivariable
[41] = validation cohort, XRCC3 rs861539 G/A vs G/G (Ref.), univariate
[42] = validation cohort, XRCC3 rs861539 G/G
[43] = validation cohort, ATM rs609429 any G allele
[44] = validation cohort, ATM rs609429 any G vs C/C, univariate
[45] = whole testing (validation) cohort

Trifluridine/tipiracil [TAS-102]
HR OS [1]: 2.15
HR PFS [1]: 1.43
Median OS [2]: 9.0 months
Median PFS [2]: 2.0 months
HR OS [3]: 0.80
HR PFS [3]: 0.74
Median OS [4]: 5.3 months
Median PFS [4]: 1.9 months
Median OS [5]: 5.1 months
Median PFS [5]: 1.9 months
Median OS [6]: 8.7+ months
Median PFS [6]: 2.1 months
HR OS [7]: 0.57
HR PFS [7]: 0.66
Median OS [8]: 4.4 months
Median PFS [8]: 1.9 months
HR OS [9]: 2.63
HR PFS [9]: 1.53
Median OS [10]: 8.8+ months
Median PFS [10]: 2.1 months
Median OS [11]: 6.6+ months
Median PFS [11]: 2.8 months
HR OS [12]: 0.60
HR PFS [12]: 0.67
Median OS [13]: 5.5 months
Median PFS [13]: 2.0 months
Median OS [14]: 3.9 months
Median PFS [14]: 1.8 months
HR OS [15]: 1.87
HR PFS [15]: 2.13
Median OS [16]: 9.0 months
Median PFS [16]: 2.0 months
Median OS [17]: 5.4 months
Median PFS [17]: 2.0 months
HR OS [18]: 1.36
HR PFS [18]: 1.20
Median OS [19]: 8.7+ months
Median PFS [19]: 2.0 months
Median OS [20]: 5.1 months
Median PFS [20]: 1.9 months
HR OS [21]: 1.48
HR PFS [21]: 1.21
Median OS [22]: 8.8+ months
Median PFS [22]: 2.0 months
Median OS (validation cohort, Sex Female): 5.3 months
Median PFS (validation cohort, Sex Female): 2.1 months
HR OS [23]: 1.22
HR PFS [23]: 0.98
Median OS (validation cohort, Sex Male): 9.0 months
Median PFS (validation cohort, Sex Male): 1.9 months
Median OS [24]: 8.5+ months
Median PFS [24]: 2.0 months
HR OS [25]: 0.59
HR PFS [25]: 0.75
Median OS [26]: 5.2 months
Median PFS [26]: 1.9 months
Median OS [27]: 9.0 months
Median PFS [27]: 2.0 months
HR OS [28]: 0.78
HR PFS [28]: 1.07
Median OS [29]: 5.1 months
Median PFS [29]: 1.9 months
Disease Control CR/PR/SD, patients n (%) [30]: 3 (12%)
Median OS (95% CI) [30]: 4.2 (3.6, 8.8+) months
Median PFS (95% CI) [30]: 1.9 (1.8, 2.0) months
PD, patients n (%) [30]: 22 (88%)
HR OS (95% CI) [31]: 1.05 (0.56, 1.97)
HR PFS (95% CI) [31]: 1.30 (0.81, 2.09)
HR OS (95% CI) [32]: 1.29 (0.70, 2.39)
HR PFS (95% CI) [32]: 1.37 (0.86, 2.18)
HR OS (95% CI) [33]: 0.93 (0.46, 1.88)
HR PFS (95% CI) [33]: 1.26 (0.74, 2.14)
HR OS (95% CI) [34]: 1.13 (0.57, 2.22)
HR PFS (95% CI) [34]: 1.34 (0.80, 2.25)
Disease Control CR/PR/SD, patients n (%) [35]: 19 (26%)
Median OS (95% CI) [35]: 5.8 (4.1, 9.0+) months
Median PFS (95% CI) [35]: 2.0 (1.9, 2.1) months
PD, patients n (%) [35]: 55 (74%)
HR OS (95% CI) [36]: 0.84 (0.47, 1.49)
HR PFS (95% CI) [36]: 1.05 (0.69, 1.60)
HR OS (95% CI) [37]: 0.88 (0.51, 1.54)
HR PFS (95% CI) [37]: 1.07 (0.72, 1.61)
Disease Control CR/PR/SD, patients n (%) [38]: 32 (32%)
Median OS (95% CI) [38]: 5.8 (4.7, 9.0+) months
Median PFS (95% CI) [38]: 2.0 (1.9, 2.3) months
PD, patients n (%) [38]: 67 (68%)
Disease Control CR/PR/SD, patients n (%) [39]: 16 (33%)
Median OS (95% CI) [39]: 9.0 (4.6, 9.0+) months
Median PFS (95% CI) [39]: 2.0 (1.9, 2.3) months
OS [39]: 9.0 months
PD, patients n (%) [39]: 33 (67%)
HR OS (95% CI) [40]: 0.79 (0.41, 1.51)
HR PFS (95% CI) [40]: 0.95 (0.59, 1.51)
HR OS (95% CI) [41]: 0.75 (0.40, 1.43)
HR PFS (95% CI) [41]: 0.96 (0.62, 1.50)
Disease Control CR/PR/SD, patients n (%) [42]: 16 (32%)
Median OS (95% CI) [42]: 5.5 (3.6, 8.7+) months
Median PFS (95% CI) [42]: 2.1 (1.7, 2.5) months
PD, patients n (%) [42]: 34 (68%)
OS [43]: not reached
PFS [43]: 2.0 months
HR for OS [44]: 0.73
HR for PFS [44]: 0.78
OS (validation cohort, XRCC3 rs861539 C/C variant (so in the source)): 5.5 months
HR for OS (validation cohort, XRCC3 rs861539 G/A vs C/C (so in the source)): 0.75
Median OS [45]: 5.7 months
Median PFS [45]: 2.0 months
